Test system: male Swiss-Webster mice
Experiment: intraperitoneal toxicity observation in mice
Assay type: in vivo
Details: 50 mg./kg. intraperitoneal in 10% w/v dimethylsulphoxide in saline; observed four hours and checked 24 hours after dosing

SMILES | toxic symptoms
CNC(=C[N+](=O)[O-])NCCCCc1csc(N=C(N)NCC(F)(F)F)n1 [Example 9] | No toxic symptoms
CNC(=NS(C)(=O)=O)NCCCCc1csc(NC(N)=NCC(F)(F)F)n1 [Example 11, 2-[2-(2,2,2-trifluoroethyl)guanidino]-4-[4-(2-methylsulphonyl-3-methylguanidino)butyl]thiazole] | No toxic symptoms

Reference: patent US4362728A, “Haloguanidine compounds, pharmaceutical compositions and methods of use” (ICI Americas Inc., priority 1979, dated 1982)
